Source: patent US20160000762A1, “IMPROVING COGNITIVE FUNCTION” (THE REGENTS OF THE UNIVERSITY OF CALIFORNIA, priority 2013, published 2016)

Key:
[1] = tested on: SC and TA inputs to CA1; test: Field potential recordings and LTP, acute hippocampal slices of injected mice; format: in vivo, wild-type mice
Protocol: Electrophysiology. Transverse [for Schaffer collateral (SC) input studies] or horizontal [for temporammonic (TA) input studies] hippocampal slices (400-μm thick) were prepared from adult mice. Slices were made using ice-cold dissection buffer (in mM: 212.7 sucrose, 2.6KCl, 1.23NaH2PO4, 10 dextrose, 3MgCl2 and 1CaCl2; 5% CO2/95% O2), and recordings were done in a submersion-type chamber perfused with artificial cerebrospinal fluid (ACSF, in mM: 124NaCl, 5KCl, 1.25NaH2PO4, 26NaHCO3, 10 dextrose, 1.5MgCl2, and 2.5CaCl2; 5% CO2/95% O2, 29.5-30.5° C., 2 ml/min). For field potential recordings, synaptic responses were evoked using 0.2 ms duration pulses delivered through a bipolar glass stimulating electrode at 0.0333 Hz. A train of TBS consisted of a burst of 4 pulses at 100 Hz repeated 10 times at 5 Hz. For 4× TBS, 4 trains of TBS were given at 10 sec inter-train-intervals. For whole cell recordings, slices were transferred to a submersion-type recording chamber mounted on a fixed stage of an upright microscope (E600 FN; Nikon, Tokyo, Japan) with IR oblique illumination. […]. These neurons were patched using a whole cell patch pipette (tip resistance 3-5 MΩ), which was filled with internal solution (in mM: 120 Cs-methanesulfonate, 5MgCl2, 8NaCl, 1 EGTA, 10 HEPES, 2 Mg.ATP, 0.5Na3GTP and 1 QX-314; pH 7.3, 280-290 mOsm). Recording was initiated 2-3 min after break-in, and each cell was recorded for 10-15 min to collect enough mEPSCs for analysis. The Axon patch-clamp amplifier 700B (Molecular Devices, Union City, Calif.) was used for voltage-clamp recordings. Cells were held at −70 mV, and the recorded mEPSC data were digitized at 10 kHz with a data acquisition board (National Instruments, Austin, Tex.) and acquired through custom-made programs using the Igor Pro software (WaveMetrics, Lake Oswego, Oreg.). The MiniAnalysis program (Synaptosoft, Decatur, Ga.) was used to analyze the acquired mEPSCs. The threshold for detecting mEPSCs was set at three times the root mean square (RMS) noise. […] Recordings were excluded from analysis if the RMS noise was <2, the series resistance was […], and input resistance was >100 MΩ. To minimize the impact of dendritic filtering, we adopted the standard approach of excluding mEPSCs with rise time >3 ms, as well as cells showing a negative correlation between mEPSC amplitude and rise time (Rall, 1969). Only about 4% of the total recorded cells (at most 1 cell per experimental group) were excluded due to negative correlation between mEPSC rise and amplitude. One hundred consecutive mEPSCs that met the rise time criteria were analyzed from each cell. AMPAR- and NMDAR-mediated currents were measured at −70 and +40 mV, respectively. AMPAR mediated EPSC amplitudes were measured at the peak of the current at −70 mV. NMDAR mediated EPSC amplitudes were measured 100 ms after the stimulation artifact. Data are means±SE. Student's t-test was used for two-group comparisons. For all statistical tests, P<0.05 was considered statistically significant.
Therefore, we examined whether improved cognitive performance following BTA-EG4 treatment is associated with altered synaptic function and plasticity. We conducted electrophysiology experiments in an acute hippocampal slice preparation from wild-type mice injected with BTA-EG4 (30 mg/kg, i.p.) or control solution (10% DMSO, i.p) for 2 weeks. […] Long-term potentiation (LTP) was either normal or reduced, depending on the induction protocol (FIGS. 3C-3D). […] There was also not a change in presynaptic function (FIG. 3I).

[2] = tested on: primary hippocampal neurons; test: Dendritic spine density in transfected primary hippocampal neurons; format: cell-based, Sprague-Dawley rats; details: 5 μM
Protocol: Primary neuron culture and immunostaining. Primary hippocampal neurons from E19 Sprague-Dawley rats were cultured at 150 cells/mm^2 as previously described (Pak et al., 2001). Neurons were transfected using Lipofectamine™ 2000 (Invitrogen, Carlsbad, Calif., USA) or calcium phosphate precipitation with GFP+PLL, GFP+APP shRNA, or GFP+APP and treated with BTA-EG4. The following antibodies were used: mouse anti-GFP (Novus Biologicals, 9F9.F9), rabbit anti-GFP (Invitrogen, A11122), rabbit anti-GluR1 (Calbiochem, PC246), mouse anti-GluR2 (BD Pharmagen, 556341), mouse anti-postsynaptic density (PSD)-95 (NeuroMabs, Davis, Calif., USA), mouse anti-Synaptophysin (Sigma Aldrich, s5768), rabbit APP N-terminal (Sigma-Aldrich, A8967), anti-Ras (BD Biosciences, 610001), anti-RasGRF1 (Santa Cruz, C-20; BD Biosciences, 610149), anti-ERK1/2 (Cell Signaling, 4695), anti-p-ERK1/2 (Invitrogen, 36880), anti-CREB (Cell Signaling, D76D11), anti-p-CREB (Millipore, 06-519), and mouse anti-c-Myc (Novus Biologicals, 9E10). Cultured hippocampal neuron images were acquired by LSM 510 laser scanning confocal microscope (Zeiss). Confocal zseries image stacks encompassing entire dendrite segments were analyzed using MetaMorph software (Universal Imaging Corporation, Downington, Pa., USA).
To examine whether BTA-EG4 acts through APP to increase dendritic spine density, we acutely knocked down APP using shRNA in primary hippocampal neurons. APP shRNA was cotransfected with GFP to visualize dendritic spines, and control cultures were transfected with GFP and PLL (control vector for shRNA construct). We then treated both cultures with BTA-EG4 (5 μM) or vehicle. […] To confirm this finding in vivo, we examined the effect of BTA-EG4 on dendritic spine density in APP knockout (KO) mice. APP-KO mice were injected with BTA-EG4 (30 mg/kg) or vehicle for 2 weeks, and Golgi analysis was conducted on hippocampal CA1 neurons.
To examine whether the effect of BTA-EG4 on dendritic spine formation is Ras dependent, primary hippocampal neurons were transfected with GFP and RasGRF1 shRNA, or GFP and PLL. After 24 h, we treated with BTA-EG4 (5 μM) or control for another 24 h, and spine density was measured using immunofluorescence. […] After 24 h, we then treated neurons with BTA-EG4 (5 μM) or control for 24 h, and spine density was measured. Ras-WT alone or combined with BTA-EG4 increased dendritic spine density compared with control (FIGS. 7K, 7L).

[3] = SC inputs to CA1, 30 mg/kg i.p., 2 weeks

Substance: BTA-EG4
- summation of synaptic responses during the LTP induction protocol ([1]; SC inputs to CA1): reduced
- magnitude of LTP ([1]; SC inputs to CA1, induced by 1× TBS): No difference
- magnitude of LTP ([1]; SC inputs to CA1, induced by 4× TBS): reduction
- basal synaptic transmission [1, 3]: did not alter
- presynaptic function [1, 3]: did not alter
- presynaptic function ([1]; TA inputs to CA1): not a change
- response summation during the induction protocol ([1]; TA inputs to CA1): absence of a change
- synaptic transmission normalized to presynaptic fiber volley amplitude ([1]; TA inputs to CA1): no difference
- TA-LTP ([1]; TA inputs to CA1, at 1 h post-LTP, CTRL 120±2.1%): 109±1.2%
- ability to recruit presynaptic axons per stimulation intensity ([1]; TA inputs to CA1, 30 mg/kg i.p.): reduced
- dendritic spine density ([2]; 24 h, GFP and PLL control vector): significantly increased
- dendritic spine density ([2]; 24 h, RasGRF1 knockdown): prevented the effect
- dendritic spine density ([2]; 24 h, combined with Ras-WT, vs control): increased
- dendritic spine density ([2]; 24 h, in the presence of RasN17): could no longer increase
- dendritic spine density ([2]; knockdown of APP (APP shRNA)): prevented the increase
